Measured values from patent US8785463B2, “GPR 119 agonists” (Cadila Healthcare Limited, priority 2010, dated 2014).

Molecular target: T1, human GPR 119 receptor (Homo sapiens, UniProt Q8TDV5)
T1 construct: expressed in transfected cells
T1 sequence (Q8TDV5 1-335): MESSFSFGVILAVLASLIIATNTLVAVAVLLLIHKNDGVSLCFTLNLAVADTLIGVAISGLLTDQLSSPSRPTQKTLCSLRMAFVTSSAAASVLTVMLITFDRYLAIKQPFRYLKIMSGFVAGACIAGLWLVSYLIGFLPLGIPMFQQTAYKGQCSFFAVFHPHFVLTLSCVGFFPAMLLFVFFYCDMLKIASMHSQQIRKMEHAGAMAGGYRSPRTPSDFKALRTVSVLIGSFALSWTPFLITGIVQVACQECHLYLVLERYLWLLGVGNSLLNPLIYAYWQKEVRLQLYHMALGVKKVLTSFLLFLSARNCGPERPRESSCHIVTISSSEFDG
Test: cAMP assay in stable cell line expressing recombinant human GPR 119 receptor
Assay type: cell-based
Conditions: DMSO = 1
Excerpt: A stable cell line expressing recombinant human GPR 119 receptor was established and used to investigate the efficacy of the compounds of the invention based on the intracellular levels of cyclic AMP (cAMP) using commercially available cAMP kits.

Row | Structure (SMILES) | Fold increase in cyclic AMP with respective to DMSO (10 nM compound) | Fold increase in cyclic AMP with respective to DMSO (100 nM compound) | Fold increase in cyclic AMP with respective to DMSO (1 uM compound)
1 | CCc1cnc(N2CCC(Oc3ncnc(Oc4ccc(/C=C5\SC(=O)N(S(C)(=O)=O)C5=O)cc4)c3C)CC2)nc1 [Example 3, (2)-5-(4-((6-((1-(5-Ethylpyrimidin-2-yl)piperidin-4-yl)oxy)-5-methylpyrimidin-4-yl)oxy)benzylidene)-3-(methylsulfonyl)thiazolidine-2,4-dione] | 0.64 fold | 0.88 fold | 2.02 fold
2 | CCOC(=O)N1CCC(Oc2ncnc(Oc3cccc(/C=C4\SC(=O)N(C)C4=O)c3)c2C)CC1 [Example 4, (Z)-Ethyl-4-((5-methyl-6-(3-((3-methyl-2,4-dioxothiazoldin-5-ylidene)methy 1)phenoxy)pyrimidin-4-yl)oxy)piperidine-1-carboxylate] | 4.52 fold | 4.95 fold | 7.17 fold
3 | COc1cc(/C=C2\SC(=O)NC2=O)ccc1Oc1ncnc(OC2CCN(C(=O)OC(C)(C)C)CC2)c1C [Example 8, (Z)-tert-Butyl 4-((6-(4-((2,4-dioxothiazolidin-5-ylidene)methyl)-2-methoxyphenoxy)-5-methylpyrimidin-4-yl)oxy)piperidine-1-carboxylate] | 0.52 fold | 0.85 fold | 1.67 fold
4 | CC(C)c1noc(N2CCC(Oc3cc(Oc4ccc(/C=C5\SC(=O)NC5=O)cc4)ncn3)CC2)n1 [Example 10, (Z)-5-(4-((6-((1-(3-iso-Propyl-1,2,4-oxadiazol-5-yl)piperidin-4-yl)oxy)pyrimidin-4-yl)oxy)benzylidene)thiazolidine-2,4-dione] | 1.14 fold | 2.30 fold | 5.06 fold
5 | Cc1c(Oc2ccc(/C=C3\SC(=O)NC3=O)cc2)ncnc1OC1CCN(C(=O)OCC(C)C)CC1 [Example 15, (Z)-iso-Butyl 4-((6-(4-((2,4-dioxothiazolidin-5-ylidene)methyl)phenoxy)-5-methylpyrimidin-4-yl)oxy)piperidine-1-carboxylate] | 1.72 fold | 2.19 fold | 3.28 fold

The remaining lines, values ahead:

Row | Fold increase in cyclic AMP with respective to DMSO (10 nM compound) | Fold increase in cyclic AMP with respective to DMSO (100 nM compound) | Fold increase in cyclic AMP with respective to DMSO (1 uM compound) | Structure (SMILES)
6 | 1.00 fold | 1.38 fold | 2.51 fold | COC(=O)N1CCC(Oc2ncnc(Oc3ccc(/C=C4\SC(=O)NC4=O)cc3)c2C)CC1 [Example 11, (Z)-Methyl 4-((6-(4-((2,4-dioxothiazolidin-5-ylidene)methyl)phenoxy)-5-methylpyrimidin-4-yl)oxy)piperidine-1-carboxylate]
7 | 0.61 fold | 0.63 fold | 1.42 fold | Cc1c(Oc2ccc(/C=C3\SC(=O)NC3=O)cc2)ncnc1OC1CCN(C(=O)OCc2ccccc2)CC1 [Example 13, (Z)-Benzyl 4-((6-(4-((2,4-dioxothiazolidin-5-ylidene)methyl)phenoxy)-5-methylpyrimidin-4-yl)oxy)piperidine-1-carboxylate]
8 | 1.40 fold | 2.40 fold | 6.61 fold | CCOC(=O)N1CCC(Oc2ncnc(Oc3ccc(/C=C4\SC(=O)NC4=O)cc3)c2C)CC1 [Example 14, (Z)-Ethyl 4-((6-(4-((2,4-dioxothiazolidin-5-ylidene)methyl)phenoxy)-5-methylpyrimidin-4-yl)oxy)piperidine-1-carboxylate]
